Test results: ChEMBL document CHEMBL1201862, “PubChem BioAssay data set” (2004)
Counter-ions that a name gives are not always drawn.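 96-well plates; 48 h exposure; 5 concentrations. Endpoints by linear interpolation between flanking doses. Not reached: highest tested concentration assigned. At the GI50, growth is halved.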 Calls of active or inactive are those of the source. Cut-off read from the data, not from the text of the source: active = GI50 up to about 1.1 µM and inactive = higher.

Columns and labels:
Assay in all cases: NCI-60 cell line screen, 48 h
[1] = tested on: KM12
[2] = tested on: MCF7
[3] = tested on: SF-295
[4] = tested on: OVCAR-5
[5] = tested on: SR
[6] = tested on: SK-MEL-2
[7] = tested on: PC-3
[8] = tested on: 786-0
[9] = tested on: HCT-15
[10] = tested on: OVCAR-8
[11] = tested on: SNB-75
[12] = tested on: MDA-MB-231
[13] = tested on: ACHN
[14] = tested on: LOX IMVI
[15] = tested on: COLO 205
[16] = tested on: M14
[17] = tested on: HOP-62
[18] = tested on: TK-10
[19] = tested on: IGROV-1
[20] = tested on: SK-OV-3

Structure (SMILES)	GI50 [1]	GI50 [2]	GI50 [3]	GI50 [4]	GI50 [5]	GI50 [6]	GI50 [7]	GI50 [8]	GI50 [9] [µM]	GI50 [10]	GI50 [11]	GI50 [12]	GI50 [13]	GI50 [14]	GI50 [15]	GI50 [16]	GI50 [17]	GI50 [18]	GI50 [19]	GI50 [20]
O=C(CC(=O)c1ccccc1NC1=Cc2ccccc2C(=O)C1=O)C(=O)NC1=C(Cl)C(=O)c2ccccc2C1=O	4.28 µM (inactive)	0.804 µM (active)	3.87 µM (inactive)	5.98 µM (inactive)	1.44 µM (inactive)	2.47 µM (inactive)	2.23 µM (inactive)	2.48 µM (inactive)	1.67	3.12 µM (inactive)	1.69 µM (inactive)	2.42 µM (inactive)	3.56 µM (inactive)	1.13 µM (inactive)	14.8 µM (inactive)	1.47 µM (inactive)	4.79 µM (inactive)	22.3 µM (inactive)	5.79 µM (inactive)	23.3 µM (inactive)
O=C1CCCC(=O)N1n1c(Cc2ccccc2)n[nH]c1=O	> 100 µM (inactive)	> 100 µM (inactive)	> 100 µM (inactive)	> 100 µM (inactive)	> 100 µM (inactive)	> 100 µM (inactive)	> 100 µM (inactive)	> 100 µM (inactive)	> 100	> 100 µM (inactive)	> 100 µM (inactive)	> 100 µM (inactive)	> 100 µM (inactive)	> 100 µM (inactive)	> 100 µM (inactive)	> 100 µM (inactive)	> 100 µM (inactive)	> 100 µM (inactive)	> 100 µM (inactive)	> 100 µM (inactive)
CC(=O)OCC1OC(Sc2nc(-c3ccccc3)c(C#N)c(=O)n2C2OC(COC(C)=O)C(OC(C)=O)C(OC(C)=O)C2OC(C)=O)C(OC(C)=O)C(OC(C)=O)C1OC(C)=O (stereo not given)	> 100 µM (inactive)	> 100 µM (inactive)	> 100 µM (inactive)	> 100 µM (inactive)	> 100 µM (inactive)	> 100 µM (inactive)	> 100 µM (inactive)	> 100 µM (inactive)	> 100	> 100 µM (inactive)	> 100 µM (inactive)	> 100 µM (inactive)	> 100 µM (inactive)	> 100 µM (inactive)	> 100 µM (inactive)	> 100 µM (inactive)	> 100 µM (inactive)	> 100 µM (inactive)	> 100 µM (inactive)	> 100 µM (inactive)
O=C1OCC2=C1C(c1ccc(Cl)cc1)c1cc3c(cc1O2)OCO3 (stereo not given)	3.45 µM (inactive)	3.16 µM (inactive)	2.88 µM (inactive)	> 23.9 µM (inactive)	3.03 µM (inactive)	3.2 µM (inactive)	3.62 µM (inactive)	4.65 µM (inactive)	2.83	9.12 µM (inactive)	2.49 µM (inactive)	> 24.3 µM (inactive)	6.21 µM (inactive)	3.66 µM (inactive)	5.55 µM (inactive)	4.08 µM (inactive)	3.4 µM (inactive)	8.05 µM (inactive)	3.56 µM (inactive)	2.83 µM (inactive)
COC(=O)C(N)CCCC(N)C(=O)NC(C)C(=O)NC(CCC(=O)NCCNCCNc1c2ccccc2nc2cccc([N+](=O)[O-])c12)C(N)=O (stereo not given)	10.5 µM (inactive)	3.89 µM (inactive)	27.8 µM (inactive)	35.2 µM (inactive)	19.7 µM (inactive)	8.51 µM (inactive)	4.79 µM (inactive)	5.12 µM (inactive)	14.2	8.79 µM (inactive)	10.4 µM (inactive)	16.9 µM (inactive)	10.2 µM (inactive)	14.7 µM (inactive)	6.28 µM (inactive)	13.4 µM (inactive)	19 µM (inactive)	16.2 µM (inactive)	4.6 µM (inactive)	28 µM (inactive)
O=[N+]([O-])c1cc([As](Br)c2ccc(O)c([N+](=O)[O-])c2)ccc1O	2 µM (inactive)	1.27 µM (inactive)	1.8 µM (inactive)	2.05 µM (inactive)	0.383 µM (active)	0.746 µM (active)	1.95 µM (inactive)	1.44 µM (inactive)	1.99	1.79 µM (inactive)	1.93 µM (inactive)	1.39 µM (inactive)	1.86 µM (inactive)	1.48 µM (inactive)	1.26 µM (inactive)	2.03 µM (inactive)	1.91 µM (inactive)	1.58 µM (inactive)	1.47 µM (inactive)	3.39 µM (inactive)
Oc1ccc(C(O)C2CCCCN2)cc1O (stereo not given) [RIMITEROL HYDROBROMIDE]	> 100 µM (inactive)	> 100 µM (inactive)	> 100 µM (inactive)	> 100 µM (inactive)	71 µM (inactive)	> 100 µM (inactive)	> 100 µM (inactive)	18.9 µM (inactive)	> 100	> 100 µM (inactive)	> 100 µM (inactive)	> 100 µM (inactive)	> 100 µM (inactive)	28.4 µM (inactive)	> 100 µM (inactive)	> 100 µM (inactive)	> 100 µM (inactive)	> 100 µM (inactive)	> 100 µM (inactive)	> 100 µM (inactive)
COc1cc(/C=C/C(=O)OCCc2ccccc2)ccc1O	14.6 µM (inactive)	20.8 µM (inactive)	17.3 µM (inactive)	18.2 µM (inactive)	24.7 µM (inactive)	21.6 µM (inactive)	14.2 µM (inactive)	15.7 µM (inactive)	21.7	28.5 µM (inactive)	15.2 µM (inactive)	14.2 µM (inactive)	18.5 µM (inactive)	14.5 µM (inactive)	19.4 µM (inactive)	15 µM (inactive)	16.3 µM (inactive)	15.1 µM (inactive)	14.1 µM (inactive)	16.1 µM (inactive)
CCOC(=O)Cn1c(=O)c2cc(-c3ccccc3)cc3c(Cl)nc4c(OC)c(OC)cc1c4c32	31.6 µM (inactive)	9.14 µM (inactive)	40.7 µM (inactive)	> 100 µM (inactive)	1.99 µM (inactive)	15 µM (inactive)	15.9 µM (inactive)	14.8 µM (inactive)	15	15.6 µM (inactive)	15.3 µM (inactive)	17.6 µM (inactive)	19.9 µM (inactive)	11.6 µM (inactive)	50.6 µM (inactive)	15.6 µM (inactive)	28.8 µM (inactive)	31.7 µM (inactive)	13 µM (inactive)	43.8 µM (inactive)
CCOC(=O)c1nnc2c(C(=O)OCC)c3ccccc3n2c1N	4.43 µM (inactive)	13.1 µM (inactive)	26.9 µM (inactive)	> 100 µM (inactive)	6.92 µM (inactive)	5.15 µM (inactive)	5.35 µM (inactive)	67 µM (inactive)	7.66	5.16 µM (inactive)	11 µM (inactive)	19.8 µM (inactive)	7.19 µM (inactive)	5.96 µM (inactive)	10.2 µM (inactive)	5.97 µM (inactive)	68.9 µM (inactive)	7.91 µM (inactive)	1.12 µM (active)	6.04 µM (inactive)
CC(=O)OC12c3ccccc3-c3ccccc3C1C(C(=O)O)C2(Cl)C(=O)O (stereo not given)	> 10 µM (inactive)	> 10 µM (inactive)	> 10 µM (inactive)	> 10 µM (inactive)	> 10 µM (inactive)	> 10 µM (inactive)	> 10 µM (inactive)	> 10 µM (inactive)	> 10	> 10 µM (inactive)	> 10 µM (inactive)	> 10 µM (inactive)	> 10 µM (inactive)	> 10 µM (inactive)	> 10 µM (inactive)	> 10 µM (inactive)	> 10 µM (inactive)	> 10 µM (inactive)	> 10 µM (inactive)	> 10 µM (inactive)
CS(=O)(=O)OCCN(CCOS(C)(=O)=O)c1ccc(C=O)cc1	10.4 µM (inactive)	4.7 µM (inactive)	0.774 µM (active)	3.5 µM (inactive)	0.236 µM (active)	17.1 µM (inactive)	19.4 µM (inactive)	0.365 µM (active)	9.84	7.35 µM (inactive)	1.87 µM (inactive)	21.4 µM (inactive)	0.346 µM (active)	5.08 µM (inactive)	1.81 µM (inactive)	4.55 µM (inactive)	1.43 µM (inactive)	2.94 µM (inactive)	12.8 µM (inactive)	1.14 µM (inactive)
O=C1/C(=C/c2cccc(Br)c2)Cc2ccccc21	19.3 µM (inactive)	3.66 µM (inactive)	39.7 µM (inactive)	> 100 µM (inactive)	24.5 µM (inactive)	28.8 µM (inactive)	29.9 µM (inactive)	> 100 µM (inactive)	49.4	78.9 µM (inactive)	> 100 µM (inactive)	44.9 µM (inactive)	> 100 µM (inactive)	45.1 µM (inactive)	32.1 µM (inactive)	67.3 µM (inactive)	44.6 µM (inactive)	63.5 µM (inactive)	16.8 µM (inactive)	93.1 µM (inactive)
CCSCCC(N)C(=O)O (stereo not given)	> 100 µM (inactive)	> 100 µM (inactive)	> 100 µM (inactive)	> 100 µM (inactive)	> 100 µM (inactive)	> 100 µM (inactive)	> 100 µM (inactive)	> 100 µM (inactive)	> 100	> 100 µM (inactive)	> 100 µM (inactive)	> 100 µM (inactive)	> 100 µM (inactive)	> 100 µM (inactive)	> 100 µM (inactive)	> 100 µM (inactive)	> 100 µM (inactive)	> 100 µM (inactive)	> 100 µM (inactive)	> 100 µM (inactive)
